Source: US6593347B2, “Nitrosated and nitrosylated nonsteroidal antiinflammatory compounds, compositions and methods of use” (NitroMed, Inc., priority 1998, dated 2003)
Where a name gives a salt, the structure may show the parent alone.

Assays:
[1] = system: phenylbenzoquinone-induced writhing; assay: phenylbenzoquinone-induced writhing test in mice (analgesic activity); assay type: in vivo; details: ratio of activity relative to the parent NSAID; oral gavage 1 hour prior to i.p. phenylbenzoquinone; male CD-1 mice
Protocol: The phenylbenzoquinone-induced writhing test in mice was used to measure analgesic activity. The ability of the compounds to inhibit phenylbenzoquinone-induced writhing in mice was measured using the method of Siegmund et al, Proc. Soc. Exp. Biol. Med. 95: 729-731, 1957. Male CD-1 mice (Charles River Laboratories, Wilmington, Mass.) weighing 20-25 g were fasted overnight. Vehicle or compounds were administered by oral gavage 1 hour prior to i.p. injection of 2 mg/kg of phenylbenzoquinone. Five minutes after the i.p. injection of phenylbenzoquinone, the number of writhes in a 5 minute period was counted.

[2] = system: carrageenan rat paw edema; assay: rat paw edema test (antiinflammatory activity); assay type: in vivo; details: ratio of activity relative to the parent NSAID; oral gavage one hour prior to carrageenan; paw volume three hours later; male Sprague-Dawley rats
Protocol: The rat paw edema test was used to measure antiinflammatory activity. The rat paw edema test was performed according to the method of Winter et al, Proc. Soc. Exp. Biol. Med. 111: 544-547, 1962. Male Sprague-Dawley rats (250-275 g) were fasted overnight and dosed by oral gavage with vehicle or suspensions of compound one hour prior to the subplantar injection of 50 μl of 1% suspension of carrageenan. Three hours later, the paw volume was measured and compared with the initial volume measured immediately after carrageenan injection.

[3] = system: gastric lesion; assay: rat gastric lesion test; assay type: in vivo, rats
Protocol: The rat gastric lesion test, described by Kitagawa et al, J. Phirmacol. Exp. Ther., 253:1133-1137 (1990), and Al-Ghamdi et al, J. Int. Med. Res., 19:2242 (1991), was used to evaluate the activity of compounds to produce gastric lesion. Male Sprague Dawley rats (Charles River Laboratories, Wilmington, Mass.) weighing 230-250 g were used for the experiments. The rats were housed with laboratory chow and water ad libitum prior to the study. The rats were fasted for 24 hours with free access to water and then dosed by oral gavage with vehicle or with test compounds given at a volume of 0.5 mL/100 g. Food was withheld for 18 hours after the initial dosing. Rats were euthanized by CO2 eighteen hours after dosing. The stomachs were dissected along the greater curvature, washed with a directed stream of 0.9% saline and pinned open on a sylgard based petri dish for examination of the hemorrhagic lesion. Gastric lesion score was expressed in mm and calculated by summning the length of each lesion.

[4] = ratio of activity relative to the parent NSAID, oral gavage, fasted rats, eighteen hours after dosing
[5] = 100 μmole/Kg, ratio of activity relative to the parent NSAID, oral gavage, fasted rats, eighteen hours after dosing

Compound | Relative Activity Analgesia [1] | melting point | Relative Activity Antiinflammation [2] | Relative Activity Gastric Lesion [3, 4] | Relative Activity Gastric Lesion ([3]; rat, in vivo, po) | Relative Activity Gastric Lesion [3, 5]
2-{2-[(2,6-Dichlorophenyl)amino]phenyl}-1-[2-(methyl{[(nitrosothio) cyclohexyl]methyl}amino)ethylthio]ethan-1-one [Example 32] | 1 |  |  |  |  | 
CN1CCC(CCOC(=O)Cc2ccccc2Nc2c(Cl)cccc2Cl)(SN=O)CC1 (as salt: citrate) [Example 13, 2-[1-Methyl-4-(nitrosothio)-4-piperidyl]ethyl 2-{2-[(2,6-dichlorophenyl)amino]phenyl}acetate citrate] |  | 130 °C |  |  |  | 
O=C(O)Cc1ccccc1Nc1c(Cl)cccc1Cl [Diclofenac, diclofenac, reference compound] | 1 |  | 1 | 1 |  | 
CC1(SN=O)CCN(CCOC(=O)Cc2ccccc2Nc2c(Cl)cccc2Cl)CC1.Cl [Example 1, 2-[4-Methyl-4-(nitrosothio)piperidyl]ethyl 2-{2-[(2,6-dichlorophenyl)amino]phenyl}acetate hydrochloride] | 1.5 |  | 1.2 | 0.1 |  | 
CN(CCOC(=O)Cc1ccccc1Nc1c(Cl)cccc1Cl)CC1(SN=O)CCCCC1.Cl [Example 2, 2-(Methyl{[(nitrosothio)cyclohexyl]methyl}amino)ethyl 2-{2-[(2,6-dichlorophenyl)amino]phenyl}acetate hydrochloride] | 1 |  | 1.2 | 0.02 |  | 
CN(CCCOC(=O)Cc1ccccc1Nc1c(Cl)cccc1Cl)CC1(SN=O)CCCCC1 [Example 4, 3-{Methyl{[(nitrosothio)cyclohexyl]methyl}amino)propyl 2-{2-[(2,6-dichlorophenyl)amino]phenyl}acetate] | 0.9 |  | 1.3 |  | 0.01 | 
Cl.O=NSC1(CCOC(=O)Cc2ccccc2Nc2c(Cl)cccc2Cl)CCNCC1 [Example 6, 2-[4-(Nitrosothio)-4-piperdyl]ethyl 2-{2-[(2,6-dichlorophenyl)amino]phenyl}acetate hydrochloride] |  |  |  | 0.02 |  | 
CC(C)(CN1CCN(CCOC(=O)Cc2ccccc2Nc2c(Cl)cccc2Cl)CC1)SN=O.O=C(O)CC(O)(CC(=O)O)C(=O)O [Example 8, 2-{4-[2-Methyl-2-(nitrosothio)propyl]piperazinyl}ethyl 2-{2-[(2,6-dichlorophenyl)amino]phenyl}acetate citrate] | 1.2 |  | 1.4 | 0.04 |  | 
CN1CCC(CN(C)CCCOC(=O)Cc2ccccc2Nc2c(Cl)cccc2Cl)(SN=O)CC1 [Example 12, 3-(Methyl{[1-methyl-4-(nitrosothio)(4-piperidyl)]methyl}amino)propyl 2-{2-[(2,6-dichlorophenyl)amino]pheny}acetate] |  |  |  | 0.06 |  | 
CN1CCC(CCOC(=O)Cc2ccccc2Nc2c(Cl)cccc2Cl)(SN=O)CC1 [Example 13, 2-[1-Methyl-4-(nitrosothio)-4-piperidyl]ethyl 2-{2-[(2,6-dichlorophenyl)amino]phenyl}acetate citrate] |  |  | 1 |  |  | 0.1 (100 μmole/Kg)
COc1ccc2cc([C@H](C)C(=O)OCCC3(SN=O)CCN(C)CC3)ccc2c1.O=C(O)CC(O)(CC(=O)O)C(=O)O [Example 15, 2-[1-Methyl-4-(nitrosothio)-4-piperidyl]ethyl (2S) 2-(6-methoxy(2-naphthyl)) propanoate citrate] | 1 |  | 1 |  |  | 0.1 (100 μmole/Kg)
COc1ccc2c(c1)c(CC(=O)OCCC1(SN=O)CCN(C)CC1)c(C)n2C(=O)c1ccc(Cl)cc1.O=C(O)CC(O)(CC(=O)O)C(=O)O [Example 17, 2-[1-Methyl-4-(nitrosothio)-4-piperidyl]ethyl 2{1-[(4-chlorophenyl)carbonyl]-5-methoxy-2-methylindol-3-yl}acetate citrate] | 1 |  |  |  |  | <0.07 (100 μmole/Kg)
COc1ccc2cc([C@H](C)C(=O)OCCN(C)CC3(SN=O)CCN(C)CC3)ccc2c1.Cl [Example 22, 2-(Methyl{[1-methyl-4-(nitrosothio)(4-piperidyl)]methyl}amino)ethyl (2S)-2-(6-methoxy(2-naphthyl))propanoate hydrochloride] | 1 |  | 1 |  |  | 0.1 (100 μmole/Kg)
CN(CCSC(=O)Cc1ccccc1Nc1c(Cl)cccc1Cl)CC(C)(C)SN=O.Cl [Example 31, 2-{2-[(2,6-Dichlorophenyl)amino]phenyl}-1-(2-{methyl[2-methyl-2-(nitrosothio)propyl]amino}ethylthio)ethan-1-one hydrochloride] | 1 |  | 1 |  |  | 0.02 (100 μmole/Kg)
CN(Cc1ccc(OC(=O)Cc2ccccc2Nc2c(Cl)cccc2Cl)cc1)CC(C)(C)SN=O [Example 33, 4-({Methyl[2-methyl-2-(nitrosothio)propyl]amino}methyl)phenyl 2-{2-[(2,6-dichlorophenyl)amino]phenyl}acetate] | 1 |  | 1 |  |  | 
COc1ccc2cc([C@H](C)C(=O)OCCCN3C(=O)OC[C@H]3C(C)(C)SN=O)ccc2c1 [Example 44, 3-{(4S)-4-[1-Methyl-1-(nitrosothio)ethyl]-2-oxo-1,3-oxazolidin-3-yl}propyl (2S)-2-(6-methoxy(2-naphthyl))propanoate] |  | 116 to 117 °C |  |  |  | 
COc1ccc2cc([C@H](C)C(=O)OC[C@@H]3NC(=O)[C@@H](C(C)(C)SN=O)NC3=O)ccc2c1 [Example 47, {(2S,5S)-5-[1-Methyl-1-(nitrosothio)ethyl]-3,6-dioxopiperazin-2-yl}methyl (2S)-2-(6-methoxy(2-naphthyl))propanoate] |  | > 180 °C (dec.) |  |  |  | 
